# Assay results published in patent publication US20170027896A1, “METHODS AND COMPOSITIONS FOR THE TREATMENT OF VASCULAR MALFORMATION” (IFOM - FONDAZIONE ISTITUTO FIRC DI ONCOLOGIA MOLECOLARE, priority 2014, published 2017).
# Entries after “also recorded” stand apart in the source; their conditions may differ.
# B1: VE-cadherin (other, mouse, UniProt P55284 46-784, looked up)
# chain: DWIWNQMHIDEEKNESLPHYVGKIKSNVNRQNAKYVLQGEFAGKIFGVDANTGNVLAYERLDREKVSEYFLTALIVDKNTNKNLEQPSSFTVKVHDINDNWPVFSHQVFNASVPEMSAIGTSVIRVTAVDADDPTVAGHATVLYQIVKGNEYFSIDNSGLIFTKIKNLDREKQAEYKIVVETQDALGLRGESGTATVMIRLEDINDNFPVFTQSTYTFSVPEDIRVGKPLGFLTVVDPDEPQNRMTKYSIMQGEYRDTFTIETDPKRNEGIIKPTKSLDYEVIQQYTFYIEATDPTIRYEYLSSTSGKNKAMVTINVLDVDEPPVFQRHFYHFKLPENQKKPLIGTVVAKDPDKAQRSIGYSIRKTSDRGQFFRITKQGNIYNEKELDRETYAWYNLTVEANELDSRGNPVGKESIVQVYIEVLDENDNPPEFAQPYEPKVCENAAQGKLVVQISATDKDVVPVNPKFKFALKNEDSNFTLINNHDNTANITVKYGQFNREHAKFHYLPVLISDNGVPSLTGTSTLTVGVCKCNEQGEFTFCEEMAAQAGVSIQALVAIFLCILTITVITLLIILRRRIRKQAHAHSKSALEIHEQLVTYDEEGGGEMDTTSYDVSVLNSVRGGSTKPLRSTMDARPAVYTQVQKPPRLAPGLHGGPREMATMIDVKKEEADNDGGGPPYDTLHIYGYEGAESIAESLSSLSTNSSDSDIDYDFLNDWGPRFKMLAELYGSDPQEELII
# notes: Endogenous protein immunoprecipitated from endothelial cell extracts with VE-cadherin antibodies (IP: VE); also called Cdh5
# B2: b-catenin (other, mouse, UniProt Q02248 2-781, looked up)
# chain: ATQADLMELDMAMEPDRKAAVSHWQQQSYLDSGIHSGATTTAPSLSGKGNPEEEDVDTSQVLYEWEQGFSQSFTQEQVADIDGQYAMTRAQRVRAAMFPETLDEGMQIPSTQFDAAHPTNVQRLAEPSQMLKHAVVNLINYQDDAELATRAIPELTKLLNDEDQVVVNKAAVMVHQLSKKEASRHAIMRSPQMVSAIVRTMQNTNDVETARCTAGTLHNLSHHREGLLAIFKSGGIPALVKMLGSPVDSVLFYAITTLHNLLLHQEGAKMAVRLAGGLQKMVALLNKTNVKFLAITTDCLQILAYGNQESKLIILASGGPQALVNIMRTYTYEKLLWTTSRVLKVLSVCSSNKPAIVEAGGMQALGLHLTDPSQRLVQNCLWTLRNLSDAATKQEGMEGLLGTLVQLLGSDDINVVTCAAGILSNLTCNNYKNKMMVCQVGGIEALVRTVLRAGDREDITEPAICALRHLTSRHQEAEMAQNAVRLHYGLPVVVKLLHPPSHWPLIKATVGLIRNLALCPANHAPLREQGAIPRLVQLLVRAHQDTQRRTSMGGTQQQFVEGVRMEEIVEGCTGALHILARDVHNRIVIRGLNTIPLFVQLLYSPIENIQRVAAGVLCELAQDKEAAEAIEAEGATAPLTELLHSRNEGVATYAAAVLFRMSEDKPQDYKKRLSVELTSSLFRTEPMAWNETADLGLDIGAQGEALGYRQDDPSYRSFHSGGYGQDALGMDPMMEHEMGGHHPGADYPVDGLPDLGHAQDLMDGLPPGDSNQLAWFDTDL
# notes: Endogenous protein in total cell extracts, co-immunoprecipitated with VE-cadherin antibodies; also called beta-catenin; β-catenin
# B3: Dkk1: murine recombinant Dkk1, competitor of Wnt co-receptor Lrp5/6 (protein)
# chain: TLNSVLINSNAIKNLPPPLGGAGGQPGSAVSVAPGVLYEGGNKYQTLDNYQPYPCAEDEECGSDEYCSSPSRGAAGVGGVQICLACRKRRKRCMRHAMCCPGNYCKNGICMPSDHSHFPRGEIEESIIENLGNDHNAAAGDGYPRRTTLTSKIYHTKGQEGSVCLRSSDCAAGLCCARHFWSKICKPVLKEGQVCTKHKRKGSHGLEIFQRCYCGEGLACRIQKDHHQASNSSRLHTCQRH
# What was measured:
# [1] = system: CCM3-knockout (KO) endothelial cells; assay: Axin2 and S100a4 transcription in un-stimulated CCM3-knockout endothelial cells treated with Wnt pathway inhibitors; assay type: cell-based, mouse; settings: 48 h, IWP2, IWP12 0.5, 2, 5 DM, Dkk1 0.5 uM
# Experimental: (§1) Drugs were added to confluent cells for 48 h before the indicated assays. Final concentrations for IWP2 and IWP12, both from Sigma-Aldrich, were: 0.5, 2, 5 DM. Drugs were dissolved in DMSO, control treatment (Vehicle) was 0.1% DMSO final concentration, as for drug treatment. Murine recombinant Dkk1 (R&D) was 0.5 DM on cells.
# (§2) RNA extraction was performed with RNeasy kits (74106; […]). The RNA (1 μg) was reverse transcribed with random hexamers (High Capacity cDNA Archive kits; Applied Biosystems). The cDNA was amplified with TaqMan gene expression assays (Applied Biosystems) using a 7900 HT thermocycler (ABI/Prism). For each sample, the expression levels were determined with the comparative threshold cycle (Ct) method, and normalized to the housekeeping genes encoding 18S and glyceraldehyde-3-phosphate dehydrogenase (GAPDH). For amplification, the following probes (Applied Biosystems) that have been validated to recognize the mouse transcripts in rtPCR were used: Axin2, Nkd1, Lef1, ccnd1, cMyc-Klf4, Ly6a, S100a4, Id1, Cdh2, Acta2, CD44. The probes to identify the CCM3 mRNA transcript were custom designed, as: forward, […] (SEQ ID No. 12); reverse, GCTCTGGCCGCTCAATCA (SEQ ID No. 13); reporter sequence, […] (SEQ ID No. 14).
# [2] = system: CCM3-knockout endothelial cell line; assay: rtPCR of b-catenin target gene and progenitor/EndMT markers in CCM3-knockout endothelial cell line; assay type: cell-based, mouse; settings: 48 h; 135 mM sulindac sulfide, 125 mM sulindac sulfone, 200 mM silibinin, 250 mM salinomycin
# Experimental: In some experiments, endothelial cell lines from the lungs of CCM3-flox/flox mice (8-10 weeks old) were immortalized in culture through retroviral expression of polyoma middle T gene^60. […] These cells were then maintained in culture for up to 25 passages without detectable changes in the effects of this CCM3 ablation.
# Drugs were added to confluent cells for 48 h before the indicated assays. The final concentrations used were: […] (all from Sigma-Aldrich). As all of these were dissolved in DMSO, control treatment (vehicle) was 0.1% DMSO final concentration, as for drug treatment.
# as §2
# [3] = system: wild-type endothelial cells; assay: Wnt3a stimulation of stem-cell/EndMT marker expression in wild-type endothelial cells; assay type: cell-based, mouse; settings: acute stimulation (48 h); 5 ng/ml
# Experimental: as §1, §2
# [4] = target: B2; assay: co-immunoprecipitation with VE-cadherin antibodies and Western blot, murine endothelial cell line extracts
# [5] = target: B1; assay: co-immunoprecipitation with VE-cadherin antibodies and Western blot, bands quantified with ImageJ, mean of three experiments; vehicle-KO versus vehicle-WT
# From the text: Active b-catenin and VE-cadherin were lost from cell-cell contacts (adherens junctions) in these CCM3-knockout endothelial cells (top main panels, XY axis; small lower panels, Z projection along X axis). The active b-catenin (KO vehicle, arrowheads) is concentrated into the nucleus (see corresponding arrowheads in DAPI stainings) (right panels). Treatment with sulindac sulfide restored the distribution of active b-catenin to the adherens junctions (right panels, sulindac sulfide, arrowheads, and small lower right panels, sulindac sulfide, small arrowheads, for distribution along Z axis) and co-localization of active b-catenin and VE-cadherin is observed (arrowheads). […] Podocalyxin is re-localized from the apical surface (left panels, WT, arrows) to be ectopically distributed on the basal side with CCM3 knockout (right panel, vehicle, arrowheads), as it has been reported for CCM1 knockout⁴⁶. Nuclei are outlined by white lines (DAPI). Sulindac sulfide re-establishes the correct apical distribution of podocalyxin (right panel, sulindac sulfide, arrows). Scale bar, […]. c. Representative Western blotting (top) and quantification (bottom) of the effects of sulindac sulfide on the co-immunoprecipitation complex of b-catenin and VE-cadherin. […] The quantification of the bands from the Western blotting was assessed as the means of three independent experiments, using ImageJ. d.
# [6] = system: Wnt3a-induced stimulation of Axin2; assay: Wnt3a-induced stimulation of Axin2 in wild-type and CCM3-knockout endothelial cell lines; assay type: cell-based, mouse; settings: Dkk1 0.5 uM
# Experimental: as §1, §2
molecule,measurement,setting,value
Cc1ccc2nc(NC(=O)CSc3nc4c(c(=O)n3-c3ccccc3)SCC4)sc2c1 [IWP2],b-catenin-driven activation of Axin2 and S100a4 transcription,[1],not inhibited; also recorded: did not inhibit
Cc1ccc2nc(NC(=O)CSc3nc4c(c(=O)n3C)SC(C)C4)sc2c1 (centres unmarked) [IWP12],b-catenin-driven activation of Axin2 and S100a4 transcription,[1],not inhibited; also recorded: did not inhibit
CC[C@@H](C(=O)[C@@H](C)[C@@H](O)[C@H](C)[C@@H]1O[C@@H]([C@@H](CC)C(=O)O)CC[C@@H]1C)[C@H]1O[C@]2(C=C[C@@H](O)[C@]3(CC[C@@](C)([C@H]4CC[C@](O)(CC)[C@H](C)O4)O3)O2)[C@H](C)C[C@@H]1C [salinomycin],"inhibition of transcription of Axin2, Klf4 and S100a4 (rtPCR)",[2],significantly reduced only Axin2 and S100a4
Wnt3a,induction of expression of stem-cell/EndMT markers,[3],cannot induce; also recorded: did not induce
B1,binding result,[4],binds
B2,reduction of the b-catenin/VE-cadherin co-immunoprecipitation ratio in CCM3-knockout versus wild-type cells,[5],35%
B3,b-catenin-driven activation of Axin2 and S100a4 transcription,[1],not inhibited; also recorded: did not inhibit
same,Wnt3a-induced stimulation of Axin2,[6],effectively inhibited
